Data from patent publication US9820986B2, “Glycopeptide compositions” (TAIWAN HOPAZ CHEMS, MFG. CO., LTD., priority 2005, dated 2017).

Key:
[1] = Renal clearance of pamidronate; conditions: in vivo
bone = assay: Bone scintographic imaging studies; type: in vivo, normal female Fischer 344 rats; conditions: 99mTc-labeled, 300 μCi, i.v.
tumor = assay: Tumor response to paclitaxel treatment, imaged with 99mTc-glycopeptide; type: in vivo, rats; conditions: paclitaxel 40 mg/kg iv
Procedure: To assess anti-angiogenic treatment response, rats were treated with paclitaxel (40 mg/kg,iv), followed by imaging with ^99mTc-glycopeptide on day 4. Tumor uptake and in situ hybridization (ISH) and TUNEL assays were conducted pre- and post-paclitaxel treatment.

| renal clearance [1] | Structure (SMILES) | bone targeting (bone) | tumor progression (tumor; day 4, compared to 99mTc-glycopeptide baseline) | tumor necrosis (tumor; post-treatment) |
| --- | --- | --- | --- | --- |
| quick renal clearance | NCCC(O)(P(=O)(O)O)P(=O)(O)O [Pamidronate] | targets bone poorly | – | – |
| – | CC(=O)O[C@H]1C(=O)[C@@]2(C)[C@H]([C@H](OC(=O)c3ccccc3)[C@]3(O)C[C@H](OC(=O)[C@H](O)[C@@H](NC(=O)c4ccccc4)c4ccccc4)C(C)=C1C3(C)C)[C@]1(OC(C)=O)CO[C@@H]1C[C@@H]2O [paclitaxel] | – | no marked tumor progression | clearly seen |
